Test results reported in PubChem BioAssay AID1918949 (Molecular Pharmacology Branch, DTP, NCI, 2023).
“And” between values parts separate entries of the source, which are not always exact repeats. Identical values can stand only once.

System: K24384-001-R-PDC complex spheroid viability
Test: Anticancer human tumor K24384-001-R-PDC patient-derived pancreatic adenocarcinoma cell line growth inhibition
Conditions: for viability, T/C: stronger effect = lower value
Outline: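 Drug combinations with the LSD1 inhibitor iadademstat tested on tumor cells co-cultured as spheroids with endothelial cells and mesenchymal stem cells. Concentrations descended in half-log increments from clinical Cmax or 10 microM.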

[1] = curve of first compound, second compound 0.1 µM
[2] = curve of first compound, second compound 0.316 µM
[3] = curve of first compound, second compound 1 µM
[4] = curve of first compound, second compound 3.16 µM
[5] = curve of first compound, second compound 10 µM
[6] = second compound 0.1 µM, first compound 0.00316 µM
[7] = second compound 0.1 µM, first compound 0.01 µM
[8] = second compound 0.1 µM, first compound 0.0316 µM
[9] = second compound 0.1 µM, first compound 0.1 µM
[10] = second compound 0.316 µM, first compound 0.00316 µM
[11] = second compound 0.316 µM, first compound 0.01 µM
[12] = second compound 0.316 µM, first compound 0.0316 µM
[13] = second compound 0.316 µM, first compound 0.1 µM
[14] = second compound 1 µM, first compound 0.00316 µM
[15] = second compound 1 µM, first compound 0.01 µM
[16] = second compound 1 µM, first compound 0.0316 µM
[17] = second compound 1 µM, first compound 0.1 µM
[18] = second compound 3.16 µM, first compound 0.00316 µM
[19] = second compound 3.16 µM, first compound 0.01 µM
[20] = second compound 3.16 µM, first compound 0.0316 µM
[21] = second compound 3.16 µM, first compound 0.1 µM
[22] = second compound 10 µM, first compound 0.00316 µM
[23] = second compound 10 µM, first compound 0.01 µM
[24] = second compound 10 µM, first compound 0.0316 µM
[25] = second compound 10 µM, first compound 0.1 µM
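Also: spheroids exposed to agents for seven days before luminescence viability reading.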
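For viability, T/C in this document: 100% = DMSO vehicle control viability.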

Compound | IC50 [1] [nM] | IC50 [2] [nM] | IC50 [3] [nM] | IC50 [4] [nM] | IC50 [5] [nM] | viability, T/C [6] [%] | viability, T/C [7] [%] | viability, T/C [8] [%] | viability, T/C [9] [%] | viability, T/C [10] [%] | viability, T/C [11] [%] | viability, T/C [12] [%] | viability, T/C [13] [%] | viability, T/C [14] [%] | viability, T/C [15] [%] | viability, T/C [16] [%] | viability, T/C [17] [%] | viability, T/C [18] [%] | viability, T/C [19] [%] | viability, T/C [20] [%] | also measured
COc1cc(Nc2ncc3c(n2)-c2ccc(Cl)cc2C(c2c(F)cccc2OC)=NC3)ccc1C(=O)O |  |  |  |  |  |  |  |  |  |  |  |  |  |  |  |  |  |  |  |  | viability, T/C (compound 0.00316 µM): 106% and 74.5%; viability, T/C (compound 0.01 µM): 94.8% and 78.3%; viability, T/C (compound 0.0316 µM): 85.9% and 62.4%; viability, T/C (compound 0.1 µM): 69.7% and 63.6%; viability, T/C (compound 0.316 µM): 79.4% and 69.7%; viability, T/C (compound 1 µM): 87.7% and 70.3%; IC50 (curve of compound): > 1000 nM
CC(C)CC(NC(=O)CNC(=O)c1cc(Cl)ccc1Cl)B1OC(=O)CC(CC(=O)O)(C(=O)O)O1 (configuration not stated) + NC1CC1c1ccc(-c2cccc(O)c2)cc1 | 8.97 | 9.19 | 8.54 | 8.66 | 7.15 | 97.3 | 46.6 | 4.82 | 0.93 | 95.4 | 47.8 | 4.68 | 0.79 | 117 | 38.8 | 4.54 | 0.98 | 101 | 42.9 | 4.31 | viability, T/C (second compound 0.1 µM, first compound 0.000316 µM): 121%; viability, T/C (second compound 0.1 µM, first compound 0.001 µM): 123%; viability, T/C (second compound 0.316 µM, first compound 0.000316 µM): 114%; viability, T/C (second compound 0.316 µM, first compound 0.001 µM): 113%; viability, T/C (second compound 1 µM, first compound 0.000316 µM): 112%; viability, T/C (second compound 1 µM, first compound 0.001 µM): 129%; viability, T/C (second compound 3.16 µM, first compound 0.000316 µM): 117%; viability, T/C (second compound 3.16 µM, first compound 0.001 µM): 109%; viability, T/C [21]: 0.85%; viability, T/C (second compound 10 µM, first compound 0.000316 µM): 111%; viability, T/C (second compound 10 µM, first compound 0.001 µM): 136%; viability, T/C [22]: 103%; viability, T/C [23]: 28.1%; viability, T/C [24]: 2.96%; viability, T/C [25]: 0.48%
Nc1ncn(C2CC(O)C(CO)O2)c(=O)n1 (configuration not stated) + NC1CC1c1ccc(-c2cccc(O)c2)cc1 | > 1000 | > 1000 | > 1000 | > 1000 | > 1000 | 89.9 | 86.7 | 97.5 | 80.2 | 78.3 | 98.4 | 86.5 | 85.3 | 97.8 | 91.3 | 84 | 67.9 | 88.4 | 88.4 | 87.8 | viability, T/C (second compound 0.1 µM, first compound 0.316 µM): 70.4%; viability, T/C (second compound 0.1 µM, first compound 1 µM): 79%; viability, T/C (second compound 0.316 µM, first compound 0.316 µM): 78.6%; viability, T/C (second compound 0.316 µM, first compound 1 µM): 68.9%; viability, T/C (second compound 1 µM, first compound 0.316 µM): 72.5%; viability, T/C (second compound 1 µM, first compound 1 µM): 70.6%; viability, T/C [21]: 79.2%; viability, T/C (second compound 3.16 µM, first compound 0.316 µM): 80.1%; viability, T/C (second compound 3.16 µM, first compound 1 µM): 82.6%; viability, T/C [22]: 101%; viability, T/C [23]: 97.2%; viability, T/C [24]: 89.4%; viability, T/C [25]: 90.3%; viability, T/C (second compound 10 µM, first compound 0.316 µM): 77.9%; viability, T/C (second compound 10 µM, first compound 1 µM): 87.7%
